# “Also recorded” adds a separate entry of the source.
# What was measured:
# [1] = tested on: lymph nodes; assay: Primate lymphatic MRI study (DCE MRI after subcutaneous injection); format: in vivo, M. Nemestrina; settings: animals injected subcutaneously
# Protocol: In vivo imaging of the lymph nodes using Gd-DTPA-lipid nanoparticles for dynamic contrast enhanced (DCE) MRI was performed in a 1.5T MR scanner. The pigtailed macaque (M. Nemestrina) was anesthetized with inhaled isofluorane (1-2%) and closely monitored during the experiments. A pre-contrast image of the primate was recorded to determine proper lymph node location and fine-tune the imaging parameters. The animal was removed from the MR scanner and injected subcutaneously at four sites. […] The total dose of Gd is estimated to be 24.4 μmol/kg for the primate studies.
# [2] = tested on: vasculature; assay: Rat vascular MRI study (DCE MRI after intravenous injection); format: in vivo; settings: 0.01 mmol/kg nanoparticles or 0.05 mmol/kg OMNISCAN, 5 min and 14-15 min
# Protocol: In vivo imaging of the rat using Gd-DTPA-lipid nanoparticles for dynamic contrast enhanced (DCE) MRI was performed in a 3.0T MR scanner. The rats (SD) was anesthetized with inhaled isofluorane (1-2%) and closely monitored during the experiments. A pre-contrast image of the rat was recorded to determine proper location, orientation and fine-tune the imaging parameters. The animal was removed from the MR scanner and injected with […] of indicated Gd contrast media through femoral vein. The images were recorded on a Signa […] Scanner using a surface coil 12×12 inch.
# [3] = clinical use; cited from earlier work
compound,measurement,setting,value
"CNC(=O)CN(CCN(CCN(CC(=O)[O-])CC(=O)NC)CC(=O)[O-])CC(=O)[O-].[Gd+3] [OMNISCAN, Gd-DTPA-BMA]",Time within which signal in lymphatic system dissipates,[1],≤ 20 min
same,Localization of contrast enhancement,[2],"diffused throughout and does not localize in the vasculature, well-perfused tissues, or the lymph nodes; also recorded: diffuse contrast localization with no vascular definition"
same,Clearance time,[3],cleared within a few minutes

# Reference: patent publication US11207430B2, “Gadolinium expressed lipid nanoparticles for magnetic resonance imaging” (University of Washington, priority 2009, dated 2021)
